pKi: −log10 of the molar value.

T1 sequence (Q92847 whole entry): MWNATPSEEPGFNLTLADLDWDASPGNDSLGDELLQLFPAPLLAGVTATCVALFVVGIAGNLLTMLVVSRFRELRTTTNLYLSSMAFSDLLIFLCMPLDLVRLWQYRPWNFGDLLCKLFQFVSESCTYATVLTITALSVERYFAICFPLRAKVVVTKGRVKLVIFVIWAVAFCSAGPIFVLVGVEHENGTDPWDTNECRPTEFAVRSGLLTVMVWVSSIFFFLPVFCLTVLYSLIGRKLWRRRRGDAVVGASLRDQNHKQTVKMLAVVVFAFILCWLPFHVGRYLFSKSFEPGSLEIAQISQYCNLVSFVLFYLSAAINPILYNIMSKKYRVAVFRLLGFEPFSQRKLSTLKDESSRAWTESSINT

The first assay concerns the target T1, human growth hormone secretagogue receptor (hGHS-R1a) (Homo sapiens, UniProt Q92847).
T1 construct: purchased PerkinElmer BioSignal #RBHGHSM, lot#1887; host or cells: HEK-293, stably transfected
The experiment in a line: Competitive radioligand binding assay (ghrelin receptor), [125I]-ghrelin displacement. Particulars: Table 4; binding at human ghrelin receptor; TFA salts unless otherwise noted; read-out: Ki. As for the experimental part: The competitive binding assay at the human growth hormone secretagogue receptor (hGHS-R1a) was carried out analogously to assays described in the literature.
Multiscreen Harvest plates-GF/C (Millipore, #MAHFC1H60) • 4. […] Bottom seal (Millipore, #MATAH0P00) • 7. […] Binding Buffer: 25 mM Hepes (pH 7.4), 1 mM CaCl2, 5 mM MgCl2, 2.5 mM EDTA, 0.4% BSA Assay Volumes
Competition experiments were performed in a 300 μl filtration assay format. • 1. 220 μL of membranes diluted in binding buffer • 2. 40 μL of compound diluted in binding buffer • 3. […] Compound Handling
Compounds were provided frozen on dry ice at a stock concentration of 10 mM diluted in 100% DMSO and stored at −80° C. until the day of testing. On the test day, compounds were allowed to thaw at rt O/N and then diluted in assay buffer according to the desired test concentrations.
Plates were sealed with TopSeal-A, vortexed gently and incubated at rt for 30 min. The reaction was arrested by filtering samples through Multiscreen Harvest plates (pre-soaked in 0.5% polyethyleneimine) using a Tomtec Harvester, washed 9 times with 500 μL of cold 50 mM Tris-HCl (pH 7.4, 4° C.), and then plates were air-dried in a fumehood for 30 min. A bottom seal was applied to the plates prior to the addition of 25 μL of MicroScint-0 to each well. […] Results were expressed as counts per minute (cpm).
Data were analyzed by GraphPad Prism (GraphPad Software, San Diego, Calif.) using a variable slope non-linear regression analysis.
Compound structures for Tables 3A, 3B and 3D are presented with the various groups as defined for the general structure of formula I. For Tables 3B and 3D, in all entries, m, n and p are 0; X, Z1 and Z2 are each NH. For Table 3B, R1 is H for all entries. The tethers (T) are illustrated with the bonding to X and Z2 as indicated. The compounds themselves are shown for Table 3C.
• 1. […] Key Aspects of Method • 1. […] Results
Take `CCC(C)C1NCCOc2ccccc2CCCNC(=O)C(Cc2cccs2)NC(=O)C(C)N(C)C1=O` (centres unmarked) [compound 34]: the pKi was 7.00 to 8.00. `CCC(C)C1NCCOc2ccccc2CCNC(=O)C(Cc2ccccc2)NC(=O)C(C)N(C)C1=O` (centres unmarked) [compound 178]: the negative-log Ki (pKi) was 6.00 to 7.00.

Staying with this assay, now noted: [125I]-ghrelin displacement, hGHS-R1a HEK-293 membranes; read-out: Binding Activity at the Human Ghrelin Receptor (Ki).
`CCC(C)C1NCCCc2ccccc2CCCNC(=O)C(Cc2ccccc2)NC(=O)C(C)N(C)C1=O` (centres unmarked) [compound 190]: the pKi was 7.00 to 8.00.

Consider `CCC(C)C1NCCOc2ccc(C(=N)N)cc2CCCNC(=O)C(Cc2ccccc2)NC(=O)C(C)N(C)C1=O` (centres unmarked) [compound 196], for which the negative-log Ki (pKi) was less than 5.00.

On to `CC(C)C1NCCOc2ccccc2C=CCNC(=O)C(Cc2ccccc2)NC(=O)C2(CCCC2)NC1=O` (centres unmarked) [compound 200], for which the pKi was 7.00 to 8.00. With `CCCC1C(=O)N(C)C(C)C(=O)NC(Cc2ccccc2)C(=O)NCCCc2ccccc2OCCN1C` (centres unmarked) [compound 201], the pKi was 5.00 to 7.00. For the compound `CCCC1C(=O)N(C)C(C)C(=O)NC(Cc2ccccc2)C(=O)NCCCc2ccccc2OCCN1C(C)=O` (centres unmarked) [compound 202], the pKi was less than 5.00.

Consider `CC(=O)N1CCOc2ccccc2C=CCNC(=O)C(Cc2ccccc2)NC(=O)C2(CCCC2)NC(=O)C1CC(C)C` (centres unmarked) [compound 204], for which the negative-log Ki (pKi) is less than 5.00. With `CCC(C)C1NCCCc2c(c(=O)n(C)c(=O)n2C)CCCNC(=O)C(Cc2ccccc2)NC(=O)C(C)N(C)C1=O` (centres unmarked) [compound 206], the pKi was less than 5.00.

Still in this assay, the particulars now being: binding activity at the human ghrelin receptor; [125I]-ghrelin displacement, hGHS-R1a/HEK-293 membranes; read-out: Ki.
For `CCC(C)C1NCCOc2ccccc2CCCNC(=O)C(Cc2ccccc2)NC(=O)C(C(C)CC)N(C)C1=O` (single isomer, unassigned) [150b], the negative-log Ki (pKi) was less than 5.00. For the compound `CCC[C@@H]1NCCOc2ccccc2CCCNC(=O)[C@@H](Cc2ccccc2)NC(=O)CN(CC)C1=O` [compound 5], the negative logarithm of the Ki (pKi) is 5.00 to 7.00. `CCCCC1NC(=O)C(CCCC)NC(=O)C(C(C)C)NCCOc2ccccc2C=CCNC1=O` (centres unmarked) [compound 12]: the pKi was 5.00 to 7.00. On the same count and under the same terms, under `CC(C)CC1NCCOc2ccccc2C=CCNC(=O)C(Cc2cccc3ccccc23)NC(=O)C2(CCCC2)NC1=O` (centres unmarked) [compound 22] stands 7.00 to 8.00; under `CCC(C)C1NCCOc2ccccc2CCCNC(=O)C(C(c2ccccc2)c2ccccc2)NC(=O)C(C)N(C)C1=O` (centres unmarked) [compound 29], 7.00 to 8.00. Same read-out and setting: for `CCC(C)C1NCCOc2ccccc2CCCNC(=O)C(Cc2cscn2)NC(=O)C(C)N(C)C1=O` (centres unmarked) [compound 33] the value was 5.00 to 7.00; for `CCC(C)C1NCCOc2ccccc2CCCNC(=O)C(Cc2cccs2)NC(=O)C(C)N(C)C1=O` (centres unmarked) [compound 34], 7.00 to 8.00; for `CC(C)CC1NCCOCCNC(=O)C(Cc2ccccc2)NC(=O)C2(CCCC2)NC1=O` (centres unmarked) [compound 44], less than 5.00. Consider `CCCC1NC(=O)C2(CCCC2)NC(=O)C(CC(C)C)NCCOc2ccccc2C=CCNC1=O` (centres unmarked) [compound 48], for which the pKi is less than 5.00. `CCCC1NCCOc2ccccc2CCCNC(=O)C(CO)NC(=O)CN(C)C1=O` (centres unmarked) [compound 54]: the pKi is less than 5.00. Regarding `CCCC1NCCOc2ccccc2CCCNC(=O)C(Cc2ccccc2)NC(=O)C(Cc2ccccc2)NC1=O` (centres unmarked) [compound 65], the negative logarithm of the Ki (pKi) was 5.00 to 6.00. With `CCCC1NCCOc2ccccc2CCCNC(=O)C(Cc2ccccc2)NC(=O)C(C)(C)NC1=O` (centres unmarked) [compound 66], the pKi was 5.00 to 7.00. On to `CCCC1NCCOc2ccccc2CCCNC(=O)C(Cc2ccccc2)NC(=O)C(CCCCN)NC1=O` (centres unmarked) [compound 69], for which the pKi is less than 5.00. Same read-out and setting: under `CCCC1NCCOc2ccccc2CCCNC(=O)C(Cc2ccccc2)NC(=O)C(CCC(=O)O)NC1=O` (centres unmarked) [compound 70] stands less than 5.00.

For the compound `CCCC1NCCOc2ccccc2CCCNC(=O)C(Cc2ccccc2)NC(=O)C(CCC(=O)O)NC1=O` (centres unmarked) [compound 71], the pKi was less than 5.00. With `CN1CC(=O)NC(Cc2ccccc2)C(=O)NCCCc2ccccc2OCCNC(Cc2ccccc2)C1=O` (centres unmarked) [compound 75], the pKi was 5.00 to 7.00. Same read-out and setting: for `CCCC1NCc2ccccc2Sc2ccccc2CNC(=O)C(Cc2ccccc2)NC(=O)CN(C)C1=O` (centres unmarked) [compound 77] the value was 5.00 to 7.00; for `CCCC1NCC2CCC(CNC(=O)C(Cc3ccccc3)NC(=O)CN(C)C1=O)O2` (centres unmarked) [compound 78], less than 5.00; for `CC(C)CC1NCCOc2ccccc2CCCNC(=O)C(C)NC(=O)C2(CCCC2)NC1=O` (centres unmarked) [compound 87], less than 5.00. For the compound `CC(C)CC1NCCC#CCCNC(=O)C(Cc2ccccc2)NC(=O)C2(CCCC2)NC1=O` (centres unmarked) [compound 106], the pKi was less than 5.00.

As for `CC(C)CC1NCc2cccc(c2)CCNC(=O)C(Cc2ccccc2)NC(=O)C2(CCCC2)NC1=O` (centres unmarked) [compound 107], the negative logarithm of the Ki (pKi) is less than 5.00. Still for that read-out and setting: under `CC(C)CC1NCc2ccccc2Sc2ccccc2CNC(=O)C(Cc2ccccc2)NC(=O)C2(CCCC2)NC1=O` (centres unmarked) [compound 108] stands 5.00 to 6.00. Regarding `CC(C)CC1NCCOc2cccnc2CCCNC(=O)C(Cc2ccccc2)NC(=O)C2(CCCC2)NC1=O` (centres unmarked) [compound 109], the negative logarithm of the Ki (pKi) was 5.00 to 6.00. Regarding `CCOC(=O)CCC1NC(=O)C2(CCCC2)NC(=O)C(CC(C)C)NCCOc2ccccc2C=CCNC1=O` (centres unmarked) [compound 116], the negative-log Ki (pKi) is 5.00 to 6.00. Turning to `CCC1NCCOc2ccccc2CCCNC(=O)C(Cc2ccccc2)NC(=O)C(C)N(C)C1=O` (centres unmarked) [compound 117], the negative logarithm of the Ki (pKi) is 7.00 to 8.00. On the same count and under the same terms, under `O=C1NCC=Cc2ccccc2OCCNC(C(c2ccccc2)c2ccccc2)C(=O)NC2(CCCC2)C(=O)NC1Cc1ccccc1` (centres unmarked) [compound 129] stands less than 5.00; under `O=C1NC2(CCCC2)C(=O)NC(Cc2ccccc2)C(=O)NCC=Cc2ccccc2OCCNC1Cc1ccc2ccccc2c1` (centres unmarked) [compound 131], 5.00 to 7.00; under `O=C1NC2(CCCC2)C(=O)NC(Cc2ccccc2)C(=O)NCC=Cc2ccccc2OCCNC1Cc1cscn1` (centres unmarked) [compound 134], 5.00 to 7.00. Still for that read-out and setting: for `CCCC1NCCOc2ccccc2C=CCNC(=O)C(Cc2ccccc2)NC(=O)C2(CCCC2)NC1=O` (centres unmarked) [compound 137] the value was 7.00 to 8.00; for `CC(C)C1NCCOc2ccccc2C=CCNC(=O)C(Cc2ccccc2)NC(=O)C2(Cc3ccccc3C2)NC1=O` (centres unmarked) [compound 142], 5.00 to 7.00; for `CC(C)CC1NCCOc2ccccc2C=CCNC(=O)C(C(c2ccccc2)c2ccccc2)NC(=O)C2(CCCC2)NC1=O` (centres unmarked) [compound 158], less than 6.00.

As for `CC(C)CC1NCCOc2ccccc2C=CCNC(=O)C(Cc2cscn2)NC(=O)C2(CCCC2)NC1=O` (centres unmarked) [compound 163], the negative-log Ki (pKi) is less than 5.00. Consider `CC(C)CC1NCCOc2ccccc2C=CCNC(=O)C2(CCCC2)NC(=O)C2(CCCC2)NC1=O` (centres unmarked) [compound 168], for which the negative logarithm of the Ki (pKi) was 5.00 to 7.00.

Turning to `CCC(C)C1NCCOc2ccccc2CCNC(=O)C(Cc2ccccc2)NC(=O)C(C)N(C)C1=O` (centres unmarked) [compound 178], the negative logarithm of the Ki (pKi) was 5.00 to 7.00. In the case of `CCC(C)C1NCCCc2ccccc2CCNC(=O)C(Cc2ccccc2)NC(=O)C(C)N(C)C1=O` (centres unmarked) [compound 179], the pKi was 5.00 to 7.00. On to `CCC(C)C1NCCCCc2ccccc2CCNC(=O)C(Cc2ccccc2)NC(=O)C(C)N(C)C1=O` (centres unmarked) [compound 180], for which the negative logarithm of the Ki (pKi) was 5.00 to 7.00. Turning to `CCC(C)C1NCCCCC=CCNC(=O)C(Cc2ccccc2)NC(=O)C(C)N(C)C1=O` (centres unmarked) [compound 181], the negative logarithm of the Ki (pKi) was less than 5.00.

For the compound `CCC(C)C1NCCCCC=CCCNC(=O)C(Cc2ccccc2)NC(=O)C(C)N(C)C1=O` (centres unmarked) [compound 183], the negative logarithm of the Ki (pKi) was less than 5.00. Turning to `CCC(C)C1NCCOCC=CCNC(=O)C(Cc2ccccc2)NC(=O)C(C)N(C)C1=O` (centres unmarked) [compound 185], the negative-log Ki (pKi) was 5.00 to 7.00.

On to `CCC(C)C1NCCc2ccccc2C=CCNC(=O)C(Cc2ccccc2)NC(=O)C(C)N(C)C1=O` (centres unmarked) [compound 187], for which the pKi was 5.00 to 7.00. As for `CCC(C)C1NCCc2ccccc2C=CCCNC(=O)C(Cc2ccccc2)NC(=O)C(C)N(C)C1=O` (centres unmarked) [compound 188], the pKi was less than 6.00.

Source of the values: USRE42013E1, “Macrocyclic modulators of the ghrelin receptor” (Tranzyme Pharma Inc., priority 2003, dated 2010).
